Data: patent US7005274B1, “Methods and compositions for diagnosing and treating arthritic disorders and regulating bone mass” (MIGENIX Corp., priority 1999, dated 2006)

Assays:
[1] = test system: TC28 cells or articular chondrocytes expressing NTPPPH PC-1; assay: PPi elaboration by PC-1 transfectants; type: cell-based; conditions: in the presence of antimycin A or oligomycin
Description: In related experiments, the effects on PPi elaboration by PC-1 transfectants of either oligomycin or antimycin A, alone or in combination with TGFβ, were determined (FIG. 4). Briefly, transient transfections were performed on 5×10^5 TC28 cells in a 35 mm tissue culture dish using Lipofectamine Plus™ (Life Technologies, Grand Island, N.Y.). Empty plasmid DNA (2 μg) or wild-type human PC-1-encoding DNA in plasmid pcDNA3.1 (2 μg) (Johnson et al., 1999 Arth. Rheum. 42:1986; Terkeltaub et al., 1994 Arthritis Rheum. 37:934–41) was added to the lipid reagent following a complex formation of the DNA to the “Plus” reagent according to the supplier's instructions, and then incubated with cells for 3 hours at 37° C. in DMEM/Fi2 medium containing 1% FCS. Cells were then washed with phosphate buffered saline (PBS), returned to complete culture medium and incubated an additional 72 hours. […] For adenoviral gene transfer, the protocol of Johnson et al. was followed (1999 Arth. Rheum. 42:1986) using articular chondrocytes which, unlike TC28 cells, cannot be efficiently transfected with plasmid DNA. […] In sum, mitochondrial function, particularly oxidative phosphorylation, appeared to provide ATP that was critical for extracellular matrix synthesis and PPi elaboration in chondrocytes.

[2] = test system: NTPPPH; assay: Cell-associated NTPPPH activity (control study); type: cell-based; conditions: not shown
[3] = test system: alkaline phosphatase; assay: PPi-degrading alkaline phosphatase activity (control study); type: cell-based; conditions: not shown
[4] = test system: Articular Chondrocytes; assay: Intracellular ATP, luciferase assay; type: cell-based, human; conditions: 10 ng/ml TGFβ, 0.025 mM antimycin A, 0.02 μg/ml oligomycin; mean ± SD
Description: Human articular cartilage chondrocytes were obtained by collagenase digestion of articular cartilage samples, and subsequent monolayer culture, essentially as described by Terkeltaub et al. (Arthritis Rheum. 41:2152–2164, 1998). The starting material for these primary cultures was human articular cartilage excised during surgical joint replacement, or obtained at autopsy from normal or osteoarthritic joints. The articular chondrocytes were grown in Dulbecco's modified Eagle's Medium with high glucose (DMEM high glucose, Life Technologies, Inc. Grand Island, N.Y.) with 10% fetal calf serum (FCS), 1% glutamine, 100 U/ml penicillin and 50 μg/ml streptomycin (all reagents from Sigma, St. Louis, Mo., unless otherwise noted). Typically, only first passage cells were used in the studies described herein.
Levels of total cellular ATP were measured by a modification of luciferase-based assays known in the art (Lin et al., Anal. Biochem. 24:531–540, 1968); related assays and modifications may alternatively be used (see, e.g., Turman et al., In Vitro Cell. Dev. Biol. Anim. 32:1–4, 1996, for an assay format that uses a fluorescent plate reader). In brief, 2×10^6 cells were washed and pelleted in 10 ml phosphate-buffered saline (PBS). The cell pellets were snap-frozen in a dry ice/ethanol bath, after which […] of 0.2 M HCl was added, followed by 0.3 ml of 2 mM glycine (pH 9.0). Samples were heated at 100° C. for five minutes, then placed on ice. A standard curve was developed using 0 to 500 pmol of purified ATP (disodium salt). One hundred (100) μl of the cell extract, or purified ATP standard, was added to an equal volume of the ATP assay mixture (containing MgSO4, DTT, EDTA, luciferase and luciferin, all from the Sigma Bioluminescence Assay Kit and all diluted 1:25). Following a 5 second incubation and 15 second integration, samples were read on a TD-20/20 Luminometer (Turner Designs, Sunnyvale, Calif.). […]

[5] = test system: articular chondrocytes and TC28 cells; assay: Cell viability by trypan blue dye exclusion; type: cell-based, human; conditions: 0.025 mM antimycin A or 0.02 μM oligomycin, 72 hours
Description: Nonlethal but mitochondrial effective doses of antimycin A were determined as follows. Progressively higher concentrations of antimycin A (Sigma Chemical Co., St. Louis, Mo.) were added to cultured articular condrocytes and TC-28 cells. Cell proliferation was measured by incorporation of fluorogenic H33258 (Calbiochem, La Jolla, Calif.) essentially according to the manufacturer's instructions, and cell viability was assessed by trypan blue dye exclusion (Medzihradsky et al., Biochem. Med. 13:164–177, 1975), essentially according to the instructions of the manufacturer (Sigma).
The objective of these studies was to find, if possible, a level of antimycin A that depressed total cellular ATP levels without causing more than 10% loss of viability. In FIG. 1A, articular chondrocytes or TC28 cells (5×10^5) in 5 ml were studied in triplicate in the presence of antimycin (or oligomycin, see next Example) at the indicated concentrations, administered every 24 hours for a total of 72 hours, and total intracellular ATP concentrations were determined as described above. […]

[6] = test system: TC28 cells; assay: Intracellular ATP, luciferase assay; type: cell-based; conditions: 10 ng/ml TGFβ, 0.025 mM antimycin A, 0.02 μg/ml oligomycin; mean ± SD
Description: Levels of total cellular ATP were measured by a modification of luciferase-based assays known in the art (Lin et al., Anal. Biochem. 24:531–540, 1968); related assays and modifications may alternatively be used (see, e.g., Turman et al., In Vitro Cell. Dev. Biol. Anim. 32:1–4, 1996, for an assay format that uses a fluorescent plate reader). In brief, 2×10^6 cells were washed and pelleted in 10 ml phosphate-buffered saline (PBS). The cell pellets were snap-frozen in a dry ice/ethanol bath, after which […] of 0.2 M HCl was added, followed by 0.3 ml of 2 mM glycine (pH 9.0). Samples were heated at 100° C. for five minutes, then placed on ice. A standard curve was developed using 0 to 500 pmol of purified ATP (disodium salt). One hundred (100) μl of the cell extract, or purified ATP standard, was added to an equal volume of the ATP assay mixture (containing MgSO4, DTT, EDTA, luciferase and luciferin, all from the Sigma Bioluminescence Assay Kit and all diluted 1:25). Following a 5 second incubation and 15 second integration, samples were read on a TD-20/20 Luminometer (Turner Designs, Sunnyvale, Calif.).

| Molecule | intracellular and extracellular PPi levels in NTPPPH PC-1 transfectants [1] | cell-associated NTPPPH activity [2] | PPi-degrading alkaline phosphatase activity [3] | ATP (pmoles/μg DNA): Articular Chondrocytes [4] [pmoles/μg DNA] | loss of viability [5] | ATP (pmoles/μg DNA):TC28 cells [6] [pmoles/μg DNA] |
| --- | --- | --- | --- | --- | --- | --- |
| CC[C@H]1/C=C/C=C/C[C@@H](C)[C@H](O)[C@@](C)(O)C(=O)[C@@H](C)[C@H](O)[C@@H](C)C(=O)[C@@H](C)[C@H](O)[C@@H](C)/C=C/C(=O)O[C@@H]2[C@H](C)[C@H](CC1)O[C@]1(CC[C@H](C)[C@H](C[C@@H](C)O)O1)[C@H]2C [oligomycin] | unable to increase intracellular and extracellular PPi levels | neither oligomycin nor antimycin treatment suppressed cell-associated NTPPPH activity | neither agent altered PPi-degrading alkaline phosphatase activity | 221.2 ± 14.0 | less than 10% | 198.6 ± 3.7 |
| antimycin A | unable to increase intracellular and extracellular PPi levels | neither oligomycin nor antimycin treatment suppressed cell-associated NTPPPH activity | neither agent altered PPi-degrading alkaline phosphatase activity | 93.73 ± 5.9 | less than 10% | 69.78 ± 4.0 |
